Assay results taken from the supplement of paper PMC10307832.

Columns and labels:
Experiment in all cases: relative viability (nuclei count vs DMSO), 5 days (fraction); higher = more cells survive
[1] = compound: CC1=C(C(=O)N2C=CSC2=N1)CCN3CCC(=C(C4=CC=CC=C4)C5=CC=C(C=C5)F)CC3
Procedure, shortened: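 Lung cancer cell lines were seeded into 1536-well plates, kept overnight at 37 °C and pinned with five library-drug doses (not always all listed) spaced by √10. After 5 days, nuclei were Hoechst-stained, imaged at 4× and counted with MetaXpress. Viability is treated-well nuclei over vehicle-well nuclei, taken as a median across plates. Plates needed control CV below 25% and at least one doubling.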

[2] = compound: CC1=C(C(=O)N2C=CSC2=N1)CCN3CCC(=C(C4=CC=CC=C4)C5=CC=C(C=C5)F)CC3 + CC(C)C[C@H](NC(=O)[C@H](Cc1ccccc1)NC(=O)c1cnccn1)B(O)O [Bortezomib] (partner 0.002 µM)
Procedure, shortened: (§1)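 After 5 days of treatment, lung cancer cells in 1536-well plates were fixed and stained in a single step (final 0.05% Triton X-100, 1% formaldehyde, 1 ug/ml Hoechst) and their nuclei counted on 4× images. Treatment had been applied by pin tool the day after seeding as one drug alone or as a fixed anchor-drug dose with five library-drug doses (not always all listed) in √10 steps. Relative viability is the nuclei count of treated wells divided by that of vehicle wells, and values are medians of duplicate plates.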

[3] = compound: CC1=C(C(=O)N2C=CSC2=N1)CCN3CCC(=C(C4=CC=CC=C4)C5=CC=C(C=C5)F)CC3 + CCNC(=O)c1noc(-c2cc(C(C)C)c(O)cc2O)c1-c1ccc(CN2CCOCC2)cc1 [Luminespib] (partner 0.01 µM)
Procedure, shortened: as §1

[4] = compound: CC1=C(C(=O)N2C=CSC2=N1)CCN3CCC(=C(C4=CC=CC=C4)C5=CC=C(C=C5)F)CC3 + COc1cc2c(Oc3ccc(NC(=O)C4(C(=O)Nc5ccc(F)cc5)CC4)cc3F)ccnc2cc1OCCCN1CCOCC1 [Foretinib] (partner 0.25 µM)
Procedure, shortened: as §1

[5] = compound: CC1=C(C(=O)N2C=CSC2=N1)CCN3CCC(=C(C4=CC=CC=C4)C5=CC=C(C=C5)F)CC3 + COc1cccc2cc(-c3nc([C@H]4CC[C@H](C(=O)O)CC4)n4ncnc(N)c34)[nH]c12 [OSI-027] (partner 0.5 µM)
Procedure, shortened: as §1

[6] = compound: CC1=C(C(=O)N2C=CSC2=N1)CCN3CCC(=C(C4=CC=CC=C4)C5=CC=C(C=C5)F)CC3 + CS(=O)(=O)CCNCc1ccc(-c2ccc3ncnc(Nc4ccc(OCc5cccc(F)c5)c(Cl)c4)c3c2)o1 [Lapatinib] (partner 2 µM)
Procedure, shortened: as §1

[7] = compound: CC1=C(C(=O)N2C=CSC2=N1)CCN3CCC(=C(C4=CC=CC=C4)C5=CC=C(C=C5)F)CC3 + CS(=O)(=O)N1CCN(Cc2cc3nc(-c4cccc5[nH]ncc45)nc(N4CCOCC4)c3s2)CC1 [Pictilisib] (partner 1 µM)
Procedure, shortened: as §1

[8] = compound: CC1=C(C(=O)N2C=CSC2=N1)CCN3CCC(=C(C4=CC=CC=C4)C5=CC=C(C=C5)F)CC3 + C[C@@H](Oc1cc(-c2cnn(C3CCNCC3)c2)cnc1N)c1c(Cl)ccc(F)c1Cl [Crizotinib] (partner 1 µM)
Procedure, shortened: as §1

[9] = compound: CC1=C(C(=O)N2C=CSC2=N1)CCN3CCC(=C(C4=CC=CC=C4)C5=CC=C(C=C5)F)CC3 + C[C@]1(O)C[C@@H](c2nc(-c3ccc4ccc(-c5ccccc5)nc4c3)c3c(N)nccn32)C1 [Linsitinib] (partner 1 µM)
Procedure, shortened: as §1

[10] = compound: CC1=C(C(=O)N2C=CSC2=N1)CCN3CCC(=C(C4=CC=CC=C4)C5=CC=C(C=C5)F)CC3 + Cc1nc(NC(=O)N2CCC[C@H]2C(N)=O)sc1-c1ccnc(C(C)(C)C(F)(F)F)c1 [Alpelisib] (partner 2 µM)
Procedure, shortened: as §1

[11] = compound: CC1=C(C(=O)N2C=CSC2=N1)CCN3CCC(=C(C4=CC=CC=C4)C5=CC=C(C=C5)F)CC3 + Cc1nc(Nc2ncc(C(=O)Nc3c(C)cccc3Cl)s2)cc(N2CCN(CCO)CC2)n1 [Dasatinib] (partner 0.075 µM)
Procedure, shortened: as §1

[12] = compound: CC1=C(C(=O)N2C=CSC2=N1)CCN3CCC(=C(C4=CC=CC=C4)C5=CC=C(C=C5)F)CC3 + N=C(N)NC(=N)NCCc1ccccc1 [Phenformin] (partner 250 µM)
Procedure, shortened: as §1

[13] = compound: CC1=C(C(=O)N2C=CSC2=N1)CCN3CCC(=C(C4=CC=CC=C4)C5=CC=C(C=C5)F)CC3 + Nc1nc2[nH]cc(CCc3ccc(C(=O)N[C@@H](CCC(=O)O)C(=O)O)cc3)c2c(=O)[nH]1 [Pemetrexed] (partner 0.2 µM)
Procedure, shortened: as §1

NCI-H1563
relative viability ([1]; 0.08 µM): 0.903
relative viability ([1]; 0.253 µM): 0.949
relative viability ([1]; 0.8 µM): 0.882
relative viability ([1]; 2.53 µM): 0.986
relative viability ([1]; 8 µM): 0.918
relative viability ([2]; first compound 0.08 µM): 0.928
relative viability ([2]; first compound 0.253 µM): 0.957
relative viability ([2]; first compound 0.8 µM): 0.852
relative viability ([2]; first compound 2.53 µM): 0.827
relative viability ([2]; first compound 8 µM): 0.722
relative viability ([3]; first compound 0.08 µM): 0.643
relative viability ([3]; first compound 0.253 µM): 0.572
relative viability ([3]; first compound 0.8 µM): 0.49
relative viability ([3]; first compound 2.53 µM): 0.508
relative viability ([3]; first compound 8 µM): 0.534
relative viability ([4]; first compound 0.08 µM): 0.943
relative viability ([4]; first compound 0.253 µM): 0.87
relative viability ([4]; first compound 0.8 µM): 0.907
relative viability ([4]; first compound 2.53 µM): 0.946
relative viability ([4]; first compound 8 µM): 0.769
relative viability ([5]; first compound 0.08 µM): 0.85
relative viability ([5]; first compound 0.253 µM): 0.72
relative viability ([5]; first compound 0.8 µM): 0.732
relative viability ([5]; first compound 2.53 µM): 0.763
relative viability ([5]; first compound 8 µM): 0.644
relative viability ([6]; first compound 0.08 µM): 0.91
relative viability ([6]; first compound 0.253 µM): 0.845
relative viability ([6]; first compound 0.8 µM): 1
relative viability ([6]; first compound 2.53 µM): 1.01
relative viability ([6]; first compound 8 µM): 0.857
relative viability ([7]; first compound 0.08 µM): 0.542
relative viability ([7]; first compound 0.253 µM): 0.684
relative viability ([7]; first compound 0.8 µM): 0.66
relative viability ([7]; first compound 2.53 µM): 0.633
relative viability ([7]; first compound 8 µM): 0.637
relative viability ([8]; first compound 0.08 µM): 0.775
relative viability ([8]; first compound 0.253 µM): 0.842
relative viability ([8]; first compound 0.8 µM): 0.793
relative viability ([8]; first compound 2.53 µM): 0.817
relative viability ([8]; first compound 8 µM): 0.87
relative viability ([9]; first compound 0.08 µM): 1.12
relative viability ([9]; first compound 0.253 µM): 1.26
relative viability ([9]; first compound 0.8 µM): 1.2
relative viability ([9]; first compound 2.53 µM): 1.1
relative viability ([9]; first compound 8 µM): 1.14
relative viability ([10]; first compound 0.08 µM): 0.82
relative viability ([10]; first compound 0.253 µM): 0.909
relative viability ([10]; first compound 0.8 µM): 0.879
relative viability ([10]; first compound 2.53 µM): 0.885
relative viability ([10]; first compound 8 µM): 0.779
relative viability ([11]; first compound 0.08 µM): 0.502
relative viability ([11]; first compound 0.253 µM): 0.531
relative viability ([11]; first compound 0.8 µM): 0.485
relative viability ([11]; first compound 2.53 µM): 0.5
relative viability ([11]; first compound 8 µM): 0.5
relative viability ([12]; first compound 0.08 µM): 0.654
relative viability ([12]; first compound 0.253 µM): 0.7
relative viability ([12]; first compound 0.8 µM): 0.695
relative viability ([12]; first compound 2.53 µM): 0.633
relative viability ([12]; first compound 8 µM): 0.648
relative viability ([13]; first compound 0.08 µM): 0.971
relative viability ([13]; first compound 0.253 µM): 0.766
relative viability ([13]; first compound 0.8 µM): 0.744
relative viability ([13]; first compound 2.53 µM): 0.833
relative viability ([13]; first compound 8 µM): 0.653
